According to ChEMBL document CHEMBL1201862, “PubChem BioAssay data set” (2004):
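Where inhibition never reached the appropriate level, the endpoint shown equals the highest concentration tested. Otherwise, values were interpolated linearly from a five-concentration, 48-hour dose response in 96-well plates. Here, GI50 denotes the concentration required for 50% inhibition of growth.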 Active and inactive are the calls of the source. Rule as the data show it: active = GI50 up to about 1.1 µM and inactive = higher.

Legend:
Test in all cases: DTP human tumour cell line panel, 48 h
IGROV-1 = test system: IGROV-1
NCI-H522 = test system: NCI-H522
DU-145 = test system: DU-145
SK-MEL-2 = test system: SK-MEL-2
MDA-N = test system: MDA-N
OVCAR-8 = test system: OVCAR-8
SF-268 = test system: SF-268
M14 = test system: M14
ACHN = test system: ACHN
OVCAR-3 = test system: OVCAR-3
786-0 = test system: 786-0
OVCAR-5 = test system: OVCAR-5
UO-31 = test system: UO-31
SN12C = test system: SN12C
SW-620 = test system: SW-620
Hs-578T = test system: Hs-578T
HCT-15 = test system: HCT-15
CAKI-1 = test system: CAKI-1
SK-OV-3 = test system: SK-OV-3
SF-539 = test system: SF-539
A498 = test system: A498
HT-29 = test system: HT-29
HOP-92 = test system: HOP-92
NCI-H226 = test system: NCI-H226
HCT-116 = test system: HCT-116
UACC-62 = test system: UACC-62
SF-295 = test system: SF-295
SNB-75 = test system: SNB-75
SR = test system: SR
SK-MEL-28 = test system: SK-MEL-28
U-251 = test system: U-251
RPMI-8226 = test system: RPMI-8226
MDA-MB-231 = test system: MDA-MB-231
EKVX = test system: EKVX
NCI-H23 = test system: NCI-H23
MDA-MB-435 = test system: MDA-MB-435
LOX IMVI = test system: LOX IMVI
NCI-H460 = test system: NCI-H460
TK-10 = test system: TK-10
SNB-19 = test system: SNB-19
KM12 = test system: KM12
K562 = test system: K562
CCRF-CEM = test system: CCRF-CEM
MOLT-4 = test system: MOLT-4
NCI/ADR-RES = test system: NCI/ADR-RES
SK-MEL-5 = test system: SK-MEL-5
MCF7 = test system: MCF7
RXF 393 = test system: RXF 393
Malme-3M = test system: Malme-3M
HCC 2998 = test system: HCC 2998
T47D = test system: T47D
PC-3 = test system: PC-3
UACC-257 = test system: UACC-257
COLO 205 = test system: COLO 205
HOP-62 = test system: HOP-62
OVCAR-4 = test system: OVCAR-4
A549 = test system: A549
HL-60 = test system: HL-60

Compound: CCN1CCN=c2c3cc(OC)ccc3n3cnc4ccc1c2c43
- GI50 (IGROV-1): 2020 nM (inactive)
- GI50 (NCI-H522): 8.65 nM (active)
- GI50 (DU-145): 483 nM (active)
- GI50 (SK-MEL-2): 238 nM (active)
- GI50 (MDA-N): 256 nM (active)
- GI50 (OVCAR-8): 86.3 nM (active)
- GI50 (SF-268): 427 nM (active)
- GI50 (M14): 245 nM (active)
- GI50 (ACHN): 131 nM (active)
- GI50 (OVCAR-3): 226 nM (active)
- GI50 (786-0): 75.9 nM (active)
- GI50 (OVCAR-5): 316 nM (active)
- GI50 (UO-31): 147 nM (active)
- GI50 (SN12C): 142 nM (active)
- GI50 (SW-620): 824 nM (active)
- GI50 (Hs-578T): 313 nM (active)
- GI50 (HCT-15): 177 nM
- GI50 (CAKI-1): 340 nM (active)
- GI50 (SK-OV-3): 348 nM (active)
- GI50 (SF-539): 123 nM (active)
- GI50 (A498): 225 nM (active)
- GI50 (HT-29): 173 nM (active)
- GI50 (HOP-92): 776 nM (active)
- GI50 (NCI-H226): 323 nM (active)
- GI50 (HCT-116): 56.5 nM (active)
- GI50 (UACC-62): 246 nM (active)
- GI50 (SF-295): 260 nM (active)
- GI50 (SNB-75): 456 nM (active)
- GI50 (SR): 28.3 nM (active)
- GI50 (SK-MEL-28): 506 nM (active)
- GI50 (U-251): 192 nM (active)
- GI50 (RPMI-8226): 171 nM (active)
- GI50 (MDA-MB-231): 275 nM (active)
- GI50 (EKVX): 231 nM (active)
- GI50 (NCI-H23): 328 nM (active)
- GI50 (MDA-MB-435): 197 nM (active)
- GI50 (LOX IMVI): 154 nM (active)
- GI50 (NCI-H460): 94.8 nM (active)
- GI50 (TK-10): 411 nM (active)
- GI50 (SNB-19): 301 nM (active)
- GI50 (KM12): 395 nM (active)
- GI50 (K562): 55.5 nM (active)
- GI50 (CCRF-CEM): 102 nM (active)
- GI50 (MOLT-4): 87.9 nM (active)
- GI50 (NCI/ADR-RES): 145 nM (active)
- GI50 (SK-MEL-5): 270 nM (active)
- GI50 (MCF7): 219 nM (active)
- GI50 (RXF 393): 330 nM (active)
- GI50 (Malme-3M): 267 nM (active)
- GI50 (HCC 2998): 244 nM (active)
- GI50 (T47D): 390 nM (active)
- GI50 (PC-3): 207 nM (active)
- GI50 (UACC-257): 553 nM (active)
- GI50 (COLO 205): 150 nM (active)
- GI50 (HOP-62): 193 nM (active)
- GI50 (OVCAR-4): 371 nM (active)
- GI50 (A549): 192 nM (active)
- GI50 (HL-60): 206 nM (active)

Compound: Oc1c(N2CCCCC2)cc(-c2cc(N3CCCCC3)c(O)c3ccccc23)c2ccccc12
- GI50 (IGROV-1): 43700 nM (inactive)
- GI50 (DU-145): 23400 nM (inactive)
- GI50 (SK-MEL-2): 25200 nM (inactive)
- GI50 (MDA-N): 17000 nM (inactive)
- GI50 (OVCAR-8): 33000 nM (inactive)
- GI50 (SF-268): 26000 nM (inactive)
- GI50 (M14): 16700 nM (inactive)
- GI50 (ACHN): 49100 nM (inactive)
- GI50 (OVCAR-3): 23300 nM (inactive)
- GI50 (786-0): 22300 nM (inactive)
- GI50 (OVCAR-5): 72400 nM (inactive)
- GI50 (UO-31): > 100000 nM (inactive)
- GI50 (SN12C): 27600 nM (inactive)
- GI50 (SW-620): 29300 nM (inactive)
- GI50 (Hs-578T): 27700 nM (inactive)
- GI50 (HCT-15): 35200 nM
- GI50 (CAKI-1): > 100000 nM (inactive)
- GI50 (SK-OV-3): > 100000 nM (inactive)
- GI50 (SF-539): 33200 nM (inactive)
- GI50 (HT-29): 23000 nM (inactive)
- GI50 (HOP-92): 23400 nM (inactive)
- GI50 (NCI-H226): > 100000 nM (inactive)
- GI50 (HCT-116): 19000 nM (inactive)
- GI50 (UACC-62): 21100 nM (inactive)
- GI50 (SF-295): 41200 nM (inactive)
- GI50 (SR): 368 nM (active)
- GI50 (SK-MEL-28): 19900 nM (inactive)
- GI50 (U-251): 35200 nM (inactive)
- GI50 (RPMI-8226): 29600 nM (inactive)
- GI50 (MDA-MB-231): 39800 nM (inactive)
- GI50 (EKVX): > 100000 nM (inactive)
- GI50 (NCI-H23): 24900 nM (inactive)
- GI50 (MDA-MB-435): 4240 nM (inactive)
- GI50 (LOX IMVI): 25100 nM (inactive)
- GI50 (NCI-H460): 43000 nM (inactive)
- GI50 (TK-10): > 100000 nM (inactive)
- GI50 (SNB-19): 98400 nM (inactive)
- GI50 (KM12): 64100 nM (inactive)
- GI50 (K562): 71900 nM (inactive)
- GI50 (CCRF-CEM): 30200 nM (inactive)
- GI50 (MOLT-4): 22900 nM (inactive)
- GI50 (NCI/ADR-RES): 34200 nM (inactive)
- GI50 (SK-MEL-5): 17500 nM (inactive)
- GI50 (MCF7): 22900 nM (inactive)
- GI50 (RXF 393): 20400 nM (inactive)
- GI50 (Malme-3M): 12000 nM (inactive)
- GI50 (HCC 2998): 33500 nM (inactive)
- GI50 (T47D): 32400 nM (inactive)
- GI50 (PC-3): 31300 nM (inactive)
- GI50 (UACC-257): 14900 nM (inactive)
- GI50 (COLO 205): 26200 nM (inactive)
- GI50 (HOP-62): 32100 nM (inactive)
- GI50 (OVCAR-4): 17100 nM (inactive)
- GI50 (A549): 39300 nM (inactive)
- GI50 (HL-60): 27700 nM (inactive)
